One series deals with SK-OV-3. The series is described as follows: Cytotoxicity test to cancer cell lines (SRB method), SK-OV-3. The format is cell-based. The conditions noted are these: Homo sapiens, SK-OV-3, 48 h, read-out: Cytotoxicity ED50 SK-OV-3. A general note: In SRB staining, fixed cells bind dye roughly in proportion to their protein.
Another series relates to SK-MEL-2. Description: Cytotoxicity test to cancer cell lines (SRB method), SK-MEL-2. The format is cell-based. To be noted: Homo sapiens, SK-MEL-2, 48 h, read-out: Cytotoxicity ED50 SK-MEL-2.
For another series, the system named is A549. The series is described as follows: Cytotoxicity test to cancer cell lines (SRB method), A549. The conditions noted are these: Homo sapiens, A549, 48 h, read-out: Cytotoxicity ED50 A549.
For a further series, the system named is MCF7. Description: Cytotoxicity test to cancer cell lines (SRB method), MCF7. The conditions noted are these: read-out: Cytotoxicity ED50 MCF-7, MCF-7, 48 hours.
The subject of a further series is HCT-15. The series is described as follows: Cytotoxicity test to cancer cell lines (SRB method), HCT-15. To be noted: Homo sapiens, HCT-15, 48 h, read-out: Cytotoxicity ED50 HCT15.

Method for HCT-15: (§1) Cytotoxicity to A549 (Korea Research Institute of Chemical Technology), SK-OV-3 (Korea Research Institute of Chemical Technology), SK-MEL-2 (Korea Research Institute of Chemical Technology), HCT-15 (Korea Research Institute of Chemical Technology) and MCF7 (Korean Cell Line Bank, Seoul National University School of medicine) cells was measured by Sulforhodamin-B (SRB) method (1989, National Cancer Institute (NCI)) which was developed for the measurement of in vitro anticancer activity of a drug. Cells were separated using 0.25% trypsin-EDTA solution, leading to the preparation of a cell suspension by 5×10^318 2×10^4 cells/well. Then, the suspension was distributed into a 96 well plate by 100 μl/well, which was cultured in a 37° C., 5% CO2 incubator for 24 hours. Compounds prepared in examples of the present invention were used as a sample. Precisely, the compound was dissolved in dimethylsulfoxide and diluted with RPMI 1640 medium before being used as a sample. The final concentration of the sample used varied ranging 1 μM˜0.00001 μM. The medium was removed from the 96 well plate and then diluted sample solution was added by 100 μl/well, followed by further culture in a 37° C., 5% CO2 incubator for 48 hours. Tz (time zero) plate was collected from the point of adding the sample. Upon completing the culture, the medium was removed from each well along with Tz plate, then 10% trichloroacetic acid (TCA) was added by 100 μl/well. The plate was left at 4° C. for 1 hour to let cells be fixed on the floor of the plate. After cells were fixed completely, the plate was washed with water 5-6 times to remove the remaining trichloroacetic acid solution completely and moisture was completely dried at room temperature. 0.4% Sulforhodamine-B was dissolved in 1% acetic acid solution to prepare a staining solution. Cells were stained for 30 minutes with a dye added by 100 μl to each well of the completely dried plate. Then, the plate was washed with 1% acetic acid solution 5-6 times to remove sulforhodamine-B remained uncombined with cells. Then, the plate was dried at room temperature. 10 mM Tris solution was added by 100 μ/well thereto to dissolve the dye, and optical density (OD) was measured at 520 nm with a micro plate reader.
(§2) ED50 (concentration that inhibits cancer cell growth 50%, 5.0% effective dose, nM/ml) of the sample to cancer cell was calculated as follows. OD value at the point of beginning the culture with the sample was determined as Tz (time zero) value. OD value of a well to be cultured without the sample was determined as a control value (C). OD value of a well pretreated with the sample was determined as experimental value (T). After calculating Tz, C and T, cytotoxicity of the sample was measured by the below <Mathematical Formula 1>. T≦Tz, (T−Tz)/(C−Tz)×100 T>Tz, (T−Tz)/Tz×10,0 <Mathematical Formula 1>
(§3) ED50, the concentration that can inhibit cancer cell growth by 50%, was calculated by using a regression analysis of lotus program based on the degree of cytotoxicity obtained by the <Mathematical Formula 1>.
Method for MCF7: as §1, §2, §3

As for `COc1cc2c(c(OC)c1OC)-c1ccc(SC)c(=O)cc1[C@@H](NC(=O)c1ccc(CO[N+](=O)[O-])o1)CC2` [Example 2, 5-nitrooxymethyl-furan-2-carboxylic acid-[(7S)-1,2,3-trimethoxy-10-methylsulfanyl-9-oxo-5,6,7,9-tetrahydro-benzo[a]heptalen-7-yl]-amide], the EC50 was 9.3 nM with SK-OV-3; 5.4 nM in the series on SK-MEL-2; 15.8 nM with A549; 2.9 nM in the series on MCF7; 2.3 nM with HCT-15.
Regarding `COc1c(OC(C)C)cc2c(c1OC)-c1ccc(SC)c(=O)cc1[C@@H](NC(=O)c1cccc(CO[N+](=O)[O-])c1)CC2` [Example 3, N-[(7S)-3-isopropoxy-1,2-dimethoxy-10-methylsulfanyl-9-oxo-5,6,7,9-tetrahydro-benzo[a]heptalen-7-yl]-3-nitrooxymethyl-benzamide], the EC50 with SK-OV-3 was determined as 4 nM; with SK-MEL-2, 1 nM; in the series on A549, 2.4 nM; with MCF7, 2.3 nM; in the series with HCT-15, 4.8 nM.
On the same counts, the results for `CCOc1cc2c(c(OC)c1OC)-c1ccc(SC)c(=O)cc1[C@@H](NC(=O)c1cccc(CO[N+](=O)[O-])c1)CC2` [Example 4, N-[(7S)-3-ethoxy-1,2-dimethoxy-10-methylsulfanyl-9-oxo-5,6,7,9-tetrahydro-benzo[a]heptalen-7-yl]-3-nitrooxymethyl-benzamide] are 0.01 nM, 0.01 nM, 0.01 nM, 0.01 nM and 0.03 nM.
The corresponding values for `COc1cc2c(c(OC)c1OC)-c1ccc(SC)c(=O)cc1[C@@H](NC(=O)c1ccc(CO[N+](=O)[O-])s1)CC2` [Example 6, 5-nitrooxymethyl-thiophene-2-carboxylic acid-[(7S)-1,2,3-trimethoxy-10-methylsulfanyl-9-oxo-5,6,7,9-tetrahydro-benzo[a]heptalen-7-yl]-amide] are 0.37 nM, 0.08 nM, 0.7 nM, 0.16 nM and 0.27 nM.
As for `COc1c(OC2CCCC2)cc2c(c1OC)-c1ccc(SC)c(=O)cc1[C@@H](NC(=O)c1cccc(CO[N+](=O)[O-])c1)CC2` [Example 7, N-[(7S)-3-cyclopentyloxy-1,2-dimethoxy-10-methylsulfanyl-9-oxo-5,6,7,9-tetrahydro-benzo[a]heptalen-7-yl]-3-nitrooxymethyl-benzamide], the EC50 in the series with SK-OV-3, in the series with SK-MEL-2, with A549, in the series on MCF7 and in the series on HCT-15 was over 50 nM in each case.
Turning to `COc1c(OC(C)C)cc2c(c1OC)-c1ccc(SC)c(=O)cc1[C@@H](NC(=O)c1cccc(CO[N+](=O)[O-])c1F)CC2` [Example 9, 2-fluoro-N-[(7S)-3-isopropoxy-1,2-dimethoxy-10-methylsulfanyl-9-oxo-5,6,7,9-tetrahydro-benzo[a]heptalen-7-yl]-3-nitrooxymethyl-benzamide], the EC50 in the series with SK-OV-3 was found to be 0.34 nM; in the series on SK-MEL-2, 0.22 nM; in the series on A549, 0.49 nM; in the series with MCF7, 0.13 nM; with HCT-15 it was 0.64 nM.
On to `COc1cc2c(c(OC)c1OC)-c1ccc(SC)c(=O)cc1[C@@H](NC(=O)c1cccc(CO[N+](=O)[O-])c1F)CC2` [Example 10, 2-fluoro-3-nitrooxymethyl-N-[(7S)-1,2,3-trimethoxy-10-methylsulfanyl-9-oxo-5,6,7,9-tetrahydro-benzo[a]heptalen-7-yl]-benzamide], for which the EC50 with SK-OV-3 is 0.23 nM; in the series on SK-MEL-2, 0.12 nM; in the series on A549, 0.28 nM; in the series on MCF7, 0.09 nM; with HCT-15, 0.39 nM.
For `COc1c(OC2CCCC2)cc2c(c1OC)-c1ccc(SC)c(=O)cc1[C@@H](NC(=O)c1cccc(CO[N+](=O)[O-])c1F)CC2` [Example 11, N-[(7S)-3-cyclopentyloxy-1,2-dimethoxy-10-methylsulfanyl-9-oxo-5,6,7,9-tetrahydro-benzo[a]heptalen-7-yl]-2-fluoro-3-nitrooxymethyl-benzamide], the EC50 with SK-OV-3 is over 50 nM; with SK-MEL-2 it was over 50 nM; with A549, over 50 nM; in the series with MCF7, 39 nM; in the series with HCT-15, over 50 nM.
For `CCOc1cc2c(c(OC)c1OC)-c1ccc(SC)c(=O)cc1[C@@H](NC(=O)c1cc(F)cc(CO[N+](=O)[O-])c1)CC2` [Example 13, N-[(7S)-3-ethoxy-1,2-dimethoxy-10-methylsulfanyl-9-oxo-5,6,7,9-tetrahydro-benzo[a]heptalen-7-yl)-3-fluoro-5-nitrooxymethyl-benzamide], the EC50 in the series with SK-OV-3 amounted to 0.18 nM; in the series on SK-MEL-2, 0.04 nM; with A549, 0.13 nM; in the series with MCF7, 0.02 nM; in the series with HCT-15, 0.11 nM.
On the same counts, the results for `COc1c(OC(C)C)cc2c(c1OC)-c1ccc(SC)c(=O)cc1[C@@H](NC(=O)c1cc(F)cc(CO[N+](=O)[O-])c1)CC2` [Example 14, 3-fluoro-N-[(7S)-3-isopropoxy-1,2-dimethoxy-10-methylsulfanyl-9-oxo-5,6,7,9-tetrahydro-benzo[a]heptalen-7-yl]-5-nitrooxymethyl-benzamide] are 30.6 nM, 32.8 nM, 28.2 nM, 11.2 nM and 9.9 nM.
Consider `COc1c(OC2CCCC2)cc2c(c1OC)-c1ccc(SC)c(=O)cc1[C@@H](NC(=O)c1cc(F)cc(CO[N+](=O)[O-])c1)CC2` [Example 15, N-[(7S)-3-cyclopentyloxy-1,2-dimethoxy-10-methylsulfanyl-9-oxo-5,6,7,9-tetrahydro-benzo[a]heptalen-7-yl]-3-fluoro-5-nitrooxymethyl-benzamide], for which the EC50 in the series on SK-OV-3 was over 50 nM; in the series on SK-MEL-2 it was 22.5 nM; in the series on A549, 30.2 nM; in the series on MCF7 it was 18.8 nM; with HCT-15, 23.4 nM.
For the molecule `COc1cc2c(c(OC)c1OC)-c1ccc(SC)c(=O)cc1[C@@H](NC(=O)c1ccccc1OC(=O)c1cccc(CO[N+](=O)[O-])c1)CC2` [Example 29, 3-nitrooxymethyl-benzoic acid-2-[(7S)-1,2,3-trimethoxy-10-methylsulfanyl-9-oxo-5,6,7,9-tetrahydro-benzo[a]heptalen-7-yl-carbamoyl]-phenylester], the EC50 stood at 3 nM in the series with SK-OV-3, 0.9 nM in the series with SK-MEL-2, 1.1 nM with A549 and 0.8 nM with HCT-15.
For `COc1cc2c(c(OC)c1OC)-c1ccc(SC)c(=O)cc1[C@@H](NC(=O)c1ccccc1OC(=O)CCCO[N+](=O)[O-])CC2` [Example 30, 4-nitrooxybutyric acid-2-[(7S)-1,2,3-trimethoxy-10-methylsulfanyl-9-oxo-5,6,7,9-tetrahydro-benzo[a]heptalen-7-yl-carbamoyl]-phenylester], the EC50 in the series with SK-OV-3 was determined as 8.2 nM; in the series with SK-MEL-2, 3.6 nM; in the series on A549 it was 3.6 nM; in the series with HCT-15, 5.2 nM.
For the molecule `COc1cc2c(c(OC)c1OC)-c1ccc(SC)c(=O)cc1[C@@H](NC(=O)c1cccc(OC(=O)c3cccc(CO[N+](=O)[O-])c3)c1)CC2` [Example 31, 3-nitrooxymethyl-benzoic acid-3-[(7S)-1,2,3-trimethoxy-10-methylsulfanyl-9-oxo-5,6,7,9-tetrahydro-benzo[a]heptalen-7-yl-carbamoyl]-phenylester], the EC50 turned out to be 3 nM with SK-OV-3, 0.9 nM in the series with SK-MEL-2, 1.1 nM in the series on A549 and 0.8 nM in the series on HCT-15.
The corresponding values for `COc1cc2c(c(OC)c1OC)-c1ccc(SC)c(=O)cc1[C@@H](NC(=O)c1cccc(OC(=O)CCCO[N+](=O)[O-])c1)CC2` [Example 32, 4-nitrooxybutyric acid-3-[(7S)-1,2,3-trimethoxy-10-methylsulfanyl-9-oxo-5,6,7,9-tetrahydro-benzo[a]heptalen-7-yl-carbamoyl]-phenylester] are 1 nM, 0.05 nM, 6.2 nM and 0.08 nM.
On the same counts, the results for `COc1cc2c(c(OC)c1OC)-c1ccc(SC)c(=O)cc1[C@@H](NC(=O)c1cccc(COC(=O)c3cccc(CO[N+](=O)[O-])c3)c1)CC2` [Example 33] are 6.6 nM, 2.9 nM, 3.8 nM and 1 nM.
Consider `COc1cc2c(c(OC)c1OC)-c1ccc(SC)c(=O)cc1[C@@H](NC(=O)c1cccc(CON=O)c1)CC2` [Example 36, 3-nitrosooxymethyl-N-[(7S)-1,2,3-trimethoxy-10-methylsulfanyl-9-oxo-5,6,7,9-tetrahydro-benzo[a]heptalen-7-yl]-benzamide], for which the EC50 in the series on SK-OV-3 was determined as 1.1 nM; in the series on SK-MEL-2, 0.1 nM; with A549, 2.9 nM; in the series with HCT-15 it was 0.7 nM.
`COc1cc2c(c(OC)c1OC)-c1ccc(SC)c(=O)cc1[C@@H](NC(=O)c1cccc(CSN=O)c1)CC2` [Example 38, 3-nitrosothiomethyl-N-[(7S)-1,2,3-trimethoxy-10-methylsulfanyl-9-oxo-5,6,7,9-tetrahydro-benzo[a]heptalen-7-yl]-benzamide]: the EC50 in the series on SK-OV-3 worked out at 4.1 nM; in the series with SK-MEL-2 it was 3.3 nM; in the series on A549 it was 2.4 nM; in the series on HCT-15, 3 nM.

Source of the values: patent publication US20070179143A1 (priority 2003, published 2007).
